From patent US5721106A, “In Vitro method for screening β-amyloid deposition” (Regents of the University of Minnesota, priority 1994, dated 1998)
Entries after “also recorded” stand apart in the source; their conditions may differ. Ends that are not written are not given here. Peptide text beside a SMILES is read from it. * marks the point of attachment. PEG = not defined here; 125I = [125I]*

Tests used:
tissue plaques = assay: Effect of metal ions, chelating agent and detergents on deposition of labelled peptide on tissue plaques; format: binding, human
Description: A deposition-enhancing agent may be added prior to the addition of the deposition-affecting agent to be tested.

ceilan katia yarn (silk) = assay: Effect of detergents and zinc on deposition of tracer onto silk; format: binding, Bombyx silkworm; conditions: for effect of detergent on rate of deposition (binding) onto silk: detergent concentration 0 to 1%
AD plaques [1] = assay: Deposition of ^125 I-labelled β-amyloid peptides onto plaques in AD brain tissue (homogenate binding, autoradiography); design: species or system human; conditions: for deposition activity of fragment (active / not active): labelled fragment combined with AD amyloid plaque or silk, relative to βA(1-40)-OH; for plaque competence as a function of pH: growth of tissue plaques by deposition of labelled peptides from solution; for activity relative to the full length peptide βA(1-40)-OH: plaque deposition on AD brain sections, two hours, densitometry of autoradiograms
Description: Fragments labelled in accordance with the method described herein can be combined with amyloid plaque derived from Alzheimer's disease tissue or other amyloid substance such as silk, and tested for activity, for example, their ability to deposit on these materials.
(§1) Brain tissue was obtained form normal and Alzheimer's disease patients at 0.5 to 14 hours postmortem, frozen on dry ice after collection, and stored at -20° C. until use. For filter binding studies, tissue homogenates were prepared after the method of H. P. Too and M. R. Hanley, Biochem. J. 252:545 (1988), the disclosure of which is incorporated by reference herein. Tissue was homogenized (Polytron, setting 7-8, 5-10 sec) in 5-10 volumes of 50 mM Tricine (pH 7.5) containing 10% sucrose and protease inhibitors (0.01% bacitracin, 0.002% soybean trypsin inhibitor, 0.0002% chicken egg trypsin inhibitor, 1 mM benzamidine hydrochloride) and pelleted at 10,000 g for 20 minutes. The homogenate was then resuspended and washed several times in Tricine buffer containing 120 mM NaCl, 10 mM EDTA, 300 mM KCl and centrifuged at 40,000 g for 20 minutes and stored at -20° C. for less than two months. Membranes (equivalent to about 30 mg tissue) were resuspended in 0.5 ml 50 mM TrisHCl (pH 7.5) containing 1 mg/ml bovine serum albumin (BSA), 10 mM MnCl2, 0.004% bacitracin, 0.002% chymostatin, 0.004% leupeptin, 0.1% dimethylsulfoxide for 30 minutes prior to addition of the radioligand (10^-11 to 10^-9 M) and various concentrations of unlabelled peptides in the same buffer.
(§2) After incubating for two hours at room temperature, the homogenates (final volume 0.575 ml) were filtered through glass fiber filters (Whatman GF/D), presoaked for at least two hours in 1 mg/ml BSA and rinsed with 25 mM Tricine (pH 7.5). After washing twice with 25 mM TrisHCl (pH 7.5) at room temperature, the filters were counted in a gamma counter.
For tissue autoradiography, unfixed tissue was serially sectioned at 5-15 μm and thaw-mounted onto gelatin-coated slices. Slide-mounted sections were stored at -20° C. in closed boxes over desiccant for less than three months before use. Sections were preincubated for 30 minutes and incubated with the radioligand for two hours under the same conditions according to the aforedescribed homogenate binding study. Alternatively, 50 mM TrisHCl rather than Tricine may be used as the buffer. For estimating nonspecific binding, paired serial sections were incubated with the radioligand in the presence of a 10^4 to 10^5 fold excess of the unlabelled peptide. Following incubation with the radioligand, the slides were washed with 50 mM TrisHCl pH 7.5 (four times, two minutes each at 4° C.), then dried at 4° C. and stored in closed boxes over desiccant at room temperature overnight. The fully dried slides were then placed in apposition to tritium-sensitive film alongside iodinated standards. After one week's exposure at -20° C., the film was developed, fixed and washed. […] This approach generated film autoradiograms for quantitative densitometry,a high resolution emulsion autoradiograms for detailed histology, and a counterstained section for identification of cell types from each tissue section.
Briefly peptides were purchased or synthesized by fluorenemethoxycarbonyl chemistry on polystyrene resins, using acid-labile blocking groups for sidechain protection, cleaved with trifluoroacetic acid, and purified by RP-HPLC. […] Autoradiograms were quantitated by densitometry. […] To study the peptide fragments in water we developed a novel approach, measuring NMR data at 750 MHz using a prototype 10 mm ^1 H pulsed field gradient probe. Modified two-dimensional homonuclear TOCSY and NOESY experiments were measured at several pH values and structural information was derived using standard methods.

AD plaques [2] = assay: as above; design: species or system human; conditions: for plaque deposition (plaque competence) at pH 3.9: quantitative densitometry of autoradiograms; for plaque deposition at pH 5.8: 100% = deposition of ^125 I-βA(1-40)-OH at pH 7.4
[3] = system: Alzheimer's disease plaques; assay: Competitive inhibition of ^125 I-β-amyloid peptide^1-40 deposition in homogenates of Alzheimer's disease temporal cortex; format: binding, human; conditions: increasing concentrations of unlabelled peptide, AD temporal cortex homogenates (and sections)
Description: as §1, §2

[4] = target: T1, labelled β-amyloid peptide (Homo sapiens, UniProt P05067); assay: In vitro aggregation of labelled β-amyloid peptide in the absence of plaques (centrifugation, supernatant counting); format: biochemical; conditions: about 10^-9 M labelled peptide, 50 mM Tricine pH 7.5; SDS at 0.01%
T1 construct: made in house; host or cells: chemical synthesis (solid-phase Fmoc) or purchased unlabelled peptide (Bachem); radioiodinated in house
Description: A solution of about 10^-9 M labelled β-amyloid peptide in 50 mM Tricine buffer at pH 7.5 was prepared from stock solution of the peptide as described hereinabove in Example 1. The solution was aliquotted into several reaction vessels (polypropylene microcentrifuge tubes) and allowed to stand at room temperature with occasional vortex mixing. At various times, the tubes were centrifuged at 12000 g for 4 minutes, and the fraction of initial (t=0) cpm of labelled peptide remaining in the supernatant fraction determined by removing a small aliquot for counting. The rate of disappearance was dependent on a variety of other conditions which were evaluated using this assay. Thus, the rate of the disappearance depends on peptide concentration (faster at higher peptide concentrations), and on ionic strength (faster at higher salt concentrations). The rate of disappearance was further dependent on the presence of certain detergents such as sodium dodecylsulfate (SDS) (faster in 0.01% SDS; see, FIG. 4), and on the presence of certain organic solvents (slower in the presence of acetonitrile).

[5] = target: amyloid plaques in Alzheimer's disease brain tissue (homogenates and thin sections); assay: deposition of 125I-labelled peptide onto AD brain sections, autoradiography with densitometry

T1 sequence (P05067 672-711): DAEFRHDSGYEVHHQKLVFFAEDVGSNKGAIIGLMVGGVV

Triton X-100
effect of detergent on deposition of labelled peptide on tissue plaques (tissue plaques): no effect | effect of detergent on rate of deposition (binding) onto silk (ceilan katia yarn (silk)): no effect

^125 I-βA(1-40)-OH: ^125 I-radioiodinated (monoiodinated, reduced) human β-amyloid peptide 1-40 tracer
pH optimum of deposition onto plaques in AD tissue (AD plaques [1]; 100 pM): around neutrality | deposition in tissue without preformed plaques (AD plaques [1]; tissue without preformed plaques): no deposition was detected | plaque deposition (plaque competence) at pH 3.9 (AD plaques [2]): plaque-incompetent | plaque deposition at pH 5.8 (AD plaques [2]): 83%

βA(10-35)-OH: β-amyloid fragment residues 10-35, free carboxyl terminus (YEVHHQKLVFFAEDVGSNKGAIIGLM-OH)
deposition activity of fragment (active / not active) (AD plaques [1]): active

rat βA(1-40)-OH: rat and mouse analogue (G^5, F^10, R^14) of β-amyloid peptide, 1-40 (DAEFGHDSGFEVHRQKLVFFAEDVGSNKGAIIGLMVGGVV-OH)
inhibition of ^125 I-β-amyloid peptide^1-40 deposition onto plaques ([3]; listed as rat β-amyloid peptide^1-40): essentially inactive | inhibition of ^125 I-β-amyloid peptide^1-40 deposition onto plaques ([3]; listed as unlabelled rat β-amyloid peptide^1-40): did not inhibit | deposition activity of fragment (active / not active) (AD plaques [1]): not active (exhibit less than about 1% of the deposition level of βA(1-40)OH)

(des-A2)-βA(1-40)-OH: 39-mer lacking the alanine at position 2
deposition activity of fragment (active / not active) (AD plaques [1]): active

βA(1-28)-OH: 28 residue fragment corresponding to the amino terminal region
plaque competence as a function of pH (AD plaques [1]): inactive at all pH values tested | deposition activity of fragment (active / not active) (AD plaques [1]): not active (exhibit less than about 1% of the deposition level of βA(1-40)OH) | activity relative to the full length peptide βA(1-40)-OH (AD plaques [1]): less than 1%

CC#N [acetonitrile]
rate of disappearance of tracer from the supernatant (aggregation) [4]: slower

βA(1-28)-OH (peptide)
activity relative to βA(1-40)-OH [5]: < 1%

βA(10-35)-NH2: 26 residue carboxyamidated fragment from the central region of the βA sequence (YEVHHQKLVFFAEDVGSNKGAIIGLM-NH2; also: 125I at Tyr10 as tracer (name unlabelled))
plaque competence as a function of pH (AD plaques [1]): plaque-competent within the pH range of 5 to 9 | deposition activity of fragment (active / not active) (AD plaques [1]): active | activity as fraction of the activity of βA(1-40)-OH (AD plaques [1]; physiological (subnanomolar) peptide concentration): about 1/3 | activity relative to the full length peptide βA(1-40)-OH (AD plaques [1]): about 35%

CC(C)C[C@H](NC(=O)[C@H](CCCCN)NC(=O)[C@H](CCC(N)=O)NC(=O)[C@H](Cc1c[nH]cn1)NC(=O)[C@H](Cc1c[nH]cn1)NC(=O)[C@@H](NC(=O)[C@@H](N)CCC(=O)O)C(C)C)C(=O)N[C@H](C(=O)N[C@@H](Cc1ccccc1)C(=O)N[C@@H](Cc1ccccc1)C(=O)N[C@@H](C)C(=O)N[C@@H](CCC(=O)O)C(=O)N[C@@H](CC(=O)O)C(=O)N[C@H](C(=O)NCC(=O)O)C(C)C)C(C)C [βA(11-25)-OH]
deposition activity of fragment (active / not active) (AD plaques [1]): not active (exhibit less than about 1% of the deposition level of βA(1-40)OH)

βA(1-40)-PEG: β-amyloid peptide 1-40 conjugated to polyethylene glycol at the C-terminus
deposition activity of fragment (active / not active) (AD plaques [1]): active

βA(1-35)-NH2: carboxyamidated β-amyloid fragment, residues 1-35
deposition activity of fragment (active / not active) (AD plaques [1]): active

CCCCCCCCCCCCOS(=O)(=O)[O-].[Na+] [SDS, sodium dodecyl sulfate]
effect of detergent on deposition of labelled peptide on tissue plaques (tissue plaques): enhance deposition | effect of detergent on rate of deposition (binding) onto silk (ceilan katia yarn (silk)): increase binding rate | rate of disappearance of tracer from the supernatant (aggregation) [4]: faster

PEG-βA(10-35)-NH2: polyethylene glycol conjugate of βA(10-35)-NH2 ({PEG}-YEVHHQKLVFFAEDVGSNKGAIIGLM-NH2; reading uncertain)
deposition activity of fragment (active / not active) (AD plaques [1]): not active (exhibit less than about 1% of the deposition level of βA(1-40)OH)

CC[C@H](C)[C@H](NC(=O)[C@H](C)NC(=O)CNC(=O)[C@H](CCCCN)NC(=O)[C@H](CC(N)=O)NC(=O)[C@H](CO)NC(=O)CN)C(=O)N[C@H](C(=O)NCC(=O)N[C@@H](CC(C)C)C(=O)N[C@@H](CCSC)C(N)=O)[C@@H](C)CC [βA(25-35)-NH2] (H-GSNKGAIIGLM-NH2)
inhibition of ^125 I-β-amyloid peptide^1-40 deposition onto plaques ([3]; listed as β-amyloid peptide^25-35 -NH2): competed with the 40-mer radioligand when the former was present at much higher concentrations; also recorded: substantially less potent | deposition activity of fragment (active / not active) (AD plaques [1]): not active (exhibit less than about 1% of the deposition level of βA(1-40)OH)

^125 I-βA(1-28)-OH: ^125 I-labelled βA(1-28)-OH
plaque deposition (plaque competence) at pH 3.9 (AD plaques [2]): plaque-incompetent | plaque deposition at pH 5.8 (AD plaques [2]): < 1%

CCCCCCCCCCCC[N+](C)(C)CCCS(=O)(=O)[O-] [Zwittergent 312]
effect of detergent on deposition of labelled peptide on tissue plaques (tissue plaques): no effect

[Cl-].[Cl-].[Zn+2] [zinc chloride]
enhancement of the rate of deposition of labelled peptide (tissue plaques; 0.1 mM): twenty-fold | effect on deposition of ^125 I-βA(26-42)-NH2 onto AD plaques (tissue plaques; tracer ^125 I-βA(26-42)-NH2): unaffected | factor of acceleration of deposition of ^125 I-βA(1-40)-OH onto silk thread (ceilan katia yarn (silk); tracer ^125 I-βA(1-40)-OH): about 5 | effect on deposition of ^125 I-βA(26-42)-NH2 onto silk (ceilan katia yarn (silk); tracer ^125 I-βA(26-42)-NH2): unaffected

O=C(O)CN(CCN(CC(=O)O)CC(=O)O)CC(=O)O [EDTA, ethylene diamine tetraacetic acid]
inhibition of the rate of deposition of labelled peptide (tissue plaques; 0.1 mM): five-fold

^125 I-βA(10-35)-NH2: ^125 I-labelled βA(10-35)-NH2, labelled at Tyr10 (Y(125I)EVHHQKLVFFAEDVGSNKGAIIGLM-NH2)
plaque deposition (plaque competence) at pH 3.9 (AD plaques [2]): plaque-incompetent | plaque deposition at pH 5.8 (AD plaques [2]): 30%

CC[C@H](C)[C@H](NC(=O)[C@H](C)NC(=O)CNC(=O)[C@H](CCCCN)NC(=O)[C@H](CC(=O)O)NC(=O)[C@H](CO)NC(=O)CN)C(=O)N[C@H](C(=O)NCC(=O)N[C@@H](CC(C)C)C(=O)N[C@@H](CCSC)C(=O)O)[C@@H](C)CC [D27-βA(25-35)-OH] (H-GSDKGAIIGLM-OH)
deposition activity of fragment (active / not active) (AD plaques [1]): not active (exhibit less than about 1% of the deposition level of βA(1-40)OH)

B1: βA(10-35)-NH2 (peptide)
peptide: YEVHHQKLVFFAEDVGSNKGAIIGLM-NH2
modifications: not fully specified (residue 1)
activity relative to the full length peptide [5]: 35%
